Assay results from patent publication US8455532B2, “Pyrazolyl acrylonitrile compounds and uses thereof” (Shenyang Research Institute of Chemical Industry Co., Ltd., priority 2009, dated 2013).
Like-named read-outs stand apart in the source and are kept apart here. One block for each compound: values may come before it.

Key:
[1] = system: egg of spider mite (Tetranychus cinnabarinus); assay: Test against egg of spider mite, spray, incubation inhibition; format: in vivo; details: read-out: Acaricidal activity against eggs of spider mites (incubation inhibition rate, %)
Procedure: (§1) According to the solubility of test compounds, the compounds are dissolved in acetone or dimethyl sulfoxide, and then diluted with 0.1% aqueous solution of Tween 80 to form 50 ml test liquid, the content of acetone or dimethyl sulfoxide in the total solution is not more than 10%.
Two true leaves of bean plants were taken and one true leaf was removed. Then ten healthy female adult spider mites were put into the true leaf. The adult spider mites were removed after 24 h and the eggs were investigated. The solution of certain concentrations of test compounds was sprayed using a sprinkler and repeated three times. The untreated eggs were all incubated after 5 days. The unincubation of treated eggs in leaf were observed, and incubation inhibition rate of the eggs were determined.
According to the above method, high acaricidal compound 5.1, 90.1 in present invention, and known high acaricidal compound KC1 were chosen to parallel activity test against eggs of spider mites.

[2] = system: deutonymph of spider mite (Tetranychus cinnabarinus); assay: Test against deutonymph of spider mite, spray, mortality after 72 h; format: in vivo; details: read-out: Acaricidal activity against deutonymph of spider mites (mortality, %)
Procedure: as §1
Ten healthy female adult spider mites (Tetranychus cinnabarinus) were put into two true leaves of bean plants. The adult spider mites were removed after 24 h and the eggs were continued incubating. After ten days, the number of deutonymph were investigated and recorded. The solution of certain concentrations of test compounds was sprayed using a sprinkler and repeated three times. Then the deutonymph of spider mites were maintained in standard observation room. After 72 h, the survival mites in each leaf were observed, and mortality of the mites was determined.
According to above method, high acaricidal compound 5.1, 90.1 in present invention, and known high acaricidal compound KC1 were chosen to parallel activity test against deutonymph of spider mite.

[3] = system: adult spider mites (Tetranychus cinnabarinus); assay: Test against adult spider mite, spray on bean leaves, mortality after 72 h; format: in vivo; details: for mortality at 0.63 ppm / mortality at 2.5 ppm / mortality at 5 ppm / mortality at 10 ppm / mortality at 1.25 ppm: Tetranychus cinnabarinus, read-out: Acaricidal activity against adult spider mites (mortality, %)
Procedure: as §1
The adult spider mites (Tetranychus cinnabarinus) were put into two true leaves of bean plants. After the number of mites were investigated, the solution of certain concentrations of test compounds was sprayed using a sprinkler and repeated three times. Then the leaves were maintained in standard observation room. After 72 h the survival mites in each leaf were observed, and mortality of the mites was determined.
According to above method, the representative compounds of this invention, compound KC, (compound 30 in JP2003201280A, E configuration), KC2 (compound 31 in JP2003201280A, Z configuration) and KC3 (compound 24 in CN101367784A) were chosen to parallel activity test against adult spider mites.

[4] = system: peach aphid (Myzus peisicae Sulzer); assay: Test against peach aphid, spray on cabbage leaves, mortality after 72 h; format: in vivo
Procedure: as §1
The cabbage leaves with peach aphids were taken and after the number of peach aphids were investigated, the solution of certain concentrations of test compounds was sprayed using a sprinkler and repeated three times. Then the leaves were maintained in standard observation room. After 72 h, the survival peach aphids were observed, and mortality of the peach aphids was determined.

spider mites = assay: Test of systemic activity against spider mite through root absorbtion; format: in vivo; details: root dip 24 h, 72 h after infestation
Procedure: The test compounds are dissolved in acetone, and then diluted with 0.1% aqueous solution of Tween 80 to form test solution in different concentration and every treatment was repeated three times. Water is blank control. The 10 mL test compound solution was added into the tube. Two true leaves bean plants were taken and the soil in the root was removed. The bean plant was dipped into the test solution in different concentration. After absorbing 24 h, 30 to 50 spider mites were put onto the true leaves. Then the bean plants were maintained in observation room at 25±1° C. After 72 h, the death and survival mites in each leaf was observed, the mortality of the mites and systemic activity was determined.

[5] = in JP2003206280A; cited from earlier work
spider mite = details: 400 ppm, in CN101367784A; cited from earlier work

melting point: 70 to 72 °C
Structure (SMILES): CCn1nc(C)cc1C(O)=C(C#N)c1ccc(C(C)(C)C)cc1 [Compound 1, 3-(1-ethyl-3-methylpyrazol-5-yl)-2-(4-tertbutylphenyl)-3-hydroxy-acrylonitrile]

Structure (SMILES): CCn1nc(C)cc1C(OC(=O)C(C)(C)C)=C(C#N)c1ccc(C(C)(C)C)cc1 [Compound 5.1]
inhibition at 2.5 ppm [1]: 66%
inhibition at 5 ppm [1]: 100%
inhibition at 10 ppm [1]: 100%
mortality at 0.16 ppm ([2]; 0.16 ppm, spray): 94%
mortality at 0.63 ppm ([2]; 0.63 ppm, spray): 100%
mortality at 2.5 ppm ([2]; 2.5 ppm, spray): 100%
Acaricidal activity against adult spider mites (mortality, %) ([3]; 1.25 ppm, spray): 98%
mortality at 0.63 ppm ([3]; 0.63 ppm, spray): 42%
mortality at 2.5 ppm ([3]; 2.5 ppm, spray): 100%
mortality at 5 ppm ([3]; 5 ppm, spray): 100%
mortality at 10 ppm ([3]; 10 ppm, spray): 100%

Structure (SMILES): CCn1nc(C)cc1C(OC(=O)C(C)(C)C)=C(C#N)c1ccc(C(C)(C)C)cc1 [Compound 5.2]
Acaricidal activity against adult spider mites (mortality, %) ([3]; 0.63 ppm, spray): 56%
Acaricidal activity against adult spider mites (mortality, %) ([3]; 1.25 ppm, spray): 65%
Acaricidal activity against adult spider mites (mortality, %) ([3]; 2.5 ppm, spray): 87%
Acaricidal activity against adult spider mites (mortality, %) ([3]; 5 ppm, spray): 100%
Acaricidal activity against adult spider mites (mortality, %) ([3]; 10 ppm, spray): 100%

melting point: 96 to 97 °C
Structure (SMILES): CCOC(=O)OC(=C(C#N)c1ccc(C(C)(C)C)cc1)c1cc(C)nn1CC [Compound 17.1]

melting point: 86 to 88 °C
Structure (SMILES): CCn1nc(C)c(C)c1C(O)=C(C#N)c1ccc(C(C)(C)C)cc1 [Compound 39, 3-(1-ethyl-3,4-dimethylpyrazol-5-yl)-2-(4-tertbutylphenyl)-3-hydroxyl-acrylonitrile]

Structure (SMILES): CCn1nc(C)c(C)c1C(OC(=O)C(C)(C)C)=C(C#N)c1ccc(C(C)(C)C)cc1 [Compound 42.1]
Acaricidal activity against adult spider mites (mortality, %) ([3]; 0.63 ppm, spray): 20%
Acaricidal activity against adult spider mites (mortality, %) ([3]; 1.25 ppm, spray): 93%
mortality at 2.5 ppm ([3]; 2.5 ppm, spray): 100%
mortality at 5 ppm ([3]; 5 ppm, spray): 100%
mortality at 10 ppm ([3]; 10 ppm, spray): 100%

Structure (SMILES): CCn1nc(C)c(C)c1C(OC(=O)C(C)(C)C)=C(C#N)c1ccc(C(C)(C)C)cc1 [Compound 42.2]
Acaricidal activity against adult spider mites (mortality, %) ([3]; 0.63 ppm, spray): 51%
Acaricidal activity against adult spider mites (mortality, %) ([3]; 1.25 ppm, spray): 70%
Acaricidal activity against adult spider mites (mortality, %) ([3]; 2.5 ppm, spray): 100%
Acaricidal activity against adult spider mites (mortality, %) ([3]; 5 ppm, spray): 100%
Acaricidal activity against adult spider mites (mortality, %) ([3]; 10 ppm, spray): 100%

Structure (SMILES): CCn1nc(C)c(C)c1C(OC(=O)C1CC1)=C(C#N)c1ccc(C(C)(C)C)cc1 [Compound 44.2]
mortality at 0.63 ppm ([3]; 0.63 ppm, spray): 65%
mortality at 1.25 ppm ([3]; 1.25 ppm, spray): 97%
mortality at 2.5 ppm ([3]; 2.5 ppm, spray): 100%
mortality at 5 ppm ([3]; 5 ppm, spray): 100%
mortality at 10 ppm ([3]; 10 ppm, spray): 100%

Structure (SMILES): CCn1nc(C)c(C)c1C(OC(=O)C1CCC1)=C(C#N)c1ccc(C(C)(C)C)cc1 [Compound 50.1]
mortality at 0.63 ppm ([3]; 0.63 ppm, spray): 93%
mortality at 1.25 ppm ([3]; 1.25 ppm, spray): 100%
mortality at 2.5 ppm ([3]; 2.5 ppm, spray): 100%
mortality at 5 ppm ([3]; 5 ppm, spray): 100%
mortality at 10 ppm ([3]; 10 ppm, spray): 100%

Structure (SMILES): CCOC(=O)OC(=C(C#N)c1ccc(C(C)(C)C)cc1)c1c(C)c(C)nn1CC [Compound 54.1]
mortality at 1.25 ppm ([3]; 1.25 ppm, spray): 100%
mortality at 2.5 ppm ([3]; 2.5 ppm, spray): 100%
mortality at 5 ppm ([3]; 5 ppm, spray): 100%
mortality at 10 ppm ([3]; 10 ppm, spray): 100%

Structure (SMILES): CCn1nc(C)c(F)c1C(O)=C(C#N)c1ccc(C(C)(C)C)cc1 [Compound 81, 3-(1-ethyl-4-fluoro-3-methylpyrazol-5-yl)-2-(4-tertbutylphenyl)-3-hydroxy-acrylonitrile]
mortality at 600 ppm [4]: 60%

Structure (SMILES): CCn1nc(C)c(Cl)c1C(OC(=O)C(C)(C)C)=C(C#N)c1ccc(C(C)(C)C)cc1 [Compound 90.1]
inhibition at 2.5 ppm [1]: 73%
inhibition at 5 ppm [1]: 100%
inhibition at 10 ppm [1]: 100%
mortality at 0.16 ppm ([2]; 0.16 ppm, spray): 82%
mortality at 0.63 ppm ([2]; 0.63 ppm, spray): 90%
mortality at 2.5 ppm ([2]; 2.5 ppm, spray): 100%
Acaricidal activity against adult spider mites (mortality, %) ([3]; 0.63 ppm, spray): 55%
mortality at 1.25 ppm ([3]; 1.25 ppm, spray): 100%
mortality at 2.5 ppm ([3]; 2.5 ppm, spray): 100%
mortality at 5 ppm ([3]; 5 ppm, spray): 100%
mortality at 10 ppm ([3]; 10 ppm, spray): 100%
Systemic activity against spider mites through root absorbtion (mortality, %) (spider mites; 50 ppm): 66%
Systemic activity against spider mites through root absorbtion (mortality, %) (spider mites; 100 ppm): 98%
Systemic activity against spider mites through root absorbtion (mortality, %) (spider mites; 200 ppm): 100%

Structure (SMILES): CCn1nc(C)c(Cl)c1C(OC(=O)C(C)(C)C)=C(C#N)c1ccc(C(C)(C)C)cc1 [Compound 90.2]
Acaricidal activity against adult spider mites (mortality, %) ([3]; 0.63 ppm, spray): 28%
Acaricidal activity against adult spider mites (mortality, %) ([3]; 1.25 ppm, spray): 100%
Acaricidal activity against adult spider mites (mortality, %) ([3]; 2.5 ppm, spray): 100%
Acaricidal activity against adult spider mites (mortality, %) ([3]; 5 ppm, spray): 100%
Acaricidal activity against adult spider mites (mortality, %) ([3]; 10 ppm, spray): 100%

Structure (SMILES): CCOC(=O)OC(=C(C#N)c1ccc(C(C)(C)C)cc1)c1c(Cl)c(C)nn1CC [Compound 101.1]
mortality at 1.25 ppm ([3]; 1.25 ppm, spray): 50%
mortality at 2.5 ppm ([3]; 2.5 ppm, spray): 91%
mortality at 5 ppm ([3]; 5 ppm, spray): 100%
mortality at 10 ppm ([3]; 10 ppm, spray): 100%

Structure (SMILES): Cc1nn(C)c(/C(OC(=O)C(C)(C)C)=C(\C#N)c2ccc(C(C)(C)C)cc2)c1C [KC1, cyenopyrafen, reference compound]
inhibition at 2.5 ppm [1]: 7%
inhibition at 5 ppm [1]: 84%
inhibition at 10 ppm [1]: 100%
mortality at 0.16 ppm [2]: 20%
mortality at 0.63 ppm [2]: 70%
mortality at 2.5 ppm [2]: 82%
mortality at 1.25 ppm [3]: 30%
mortality at 2.5 ppm [3]: 85%
mortality at 5 ppm [3]: 100%
mortality at 10 ppm [3]: 100%
Systemic activity against spider mites through root absorbtion (mortality, %) (spider mites; 50 ppm): 0%
Systemic activity against spider mites through root absorbtion (mortality, %) (spider mites; 100 ppm): 0%
Systemic activity against spider mites through root absorbtion (mortality, %) (spider mites; 200 ppm): 0%
insecticidal and acaricidal activity [5]: good insecticidal and acaricidal activity

Structure (SMILES): Cc1nn(C)c(/C(OC(=O)C(C)(C)C)=C(/C#N)c2ccc(C(C)(C)C)cc2)c1C [KC2, reference compound]
mortality at 1.25 ppm [3]: 0%
mortality at 2.5 ppm [3]: 55%
mortality at 5 ppm [3]: 100%
mortality at 10 ppm [3]: 100%

Structure (SMILES): CCc1nn(C)c(/C(OC(C)=O)=C(\C#N)c2ccc(C(C)(C)C)cc2)c1Cl [KC3, reference compound]
mortality at 10 ppm [3]: 5%
mortality against spider mite (spider mite): more than 80%
